# Reference: paper PMC6364417, “Kinase inhibitor library screening identifies synergistic drug combinations effective in sensitive and resistant melanoma cells” (Journal of Experimental & Clinical Cancer Research : CR, 2019)
# What was measured:
# Assay in all cases: Kinase inhibitor library screening, PrestoBlue cell viability, 1 or 10 μM, 72 h
# 501Mel cells (parental) = settings: 501Mel Parental, 72 h; for cell viability, 501Mel Parental, 1μΜ / cell viability, 501Mel Parental, 10μΜ: in %
# Experimental: (§1) After 72 h of treatment, cell viability was assessed using the PrestoBlue Cell Viability Reagent (ThermoFisher Scientific). Measurements were performed with the CLARIOstar Monochromator microplate reader (BMG Labtech).
# (§2) Kinase inhibitor library screening. […] Each cell line was treated in its sensitive form (parental), and also as 2 resistant derivatives, which were made resistant to either Vemurafenib (XP) or Dabrafenib (GP). Drugs were added at 2 different concentrations, 1 and 10 μM, for 72 h and cell viability was assessed using the PrestoBlue Cell Viability assay. Results are depicted as % viability compared to untreated cells. Each cell line was analyzed at least in duplicate. […] (XLSX 95 kb)
# [1] = tested on: 501Mel-GP cells (Dabrafenib-resistant); settings: 501Mel GP, 72 h; for cell viability, 501Mel GP, 1μΜ / cell viability, 501Mel GP, 10μΜ: in %
# Experimental: as §1, §2
# [2] = tested on: 501Mel-XP cells (Vemurafenib-resistant); settings: 501Mel XP, 72 h; for cell viability, 501Mel XP, 1μΜ / cell viability, 501Mel XP, 10μΜ: in %
# Experimental: as §1, §2
# A375 cells (parental) = settings: A375 Parental, 72 h; for cell viability, A375 Parental, 1μΜ / cell viability, A375 Parental, 10μΜ: in %
# Experimental: as §1, §2
# [3] = tested on: A375-GP cells (Dabrafenib-resistant); settings: A375 GP, 72 h; for cell viability, A375 GP, 1μΜ / cell viability, A375 GP, 10μΜ: in %
# Experimental: as §1, §2
# [4] = tested on: A375-XP cells (Vemurafenib-resistant); settings: A375 XP, 72 h
# Experimental: as §1, §2
# IGR37 cells (parental) = settings: IGR37 Parental, 72 h
# Experimental: as §1, §2
# [5] = tested on: IGR37-GP cells (Dabrafenib-resistant); settings: IGR37 GP, 72 h; for cell viability, IGR37 GP, 1μΜ: in %
# Experimental: as §1, §2
# [6] = tested on: IGR37-XP cells (Vemurafenib-resistant); settings: IGR37 XP, 72 h; for cell viability, IGR37 XP, 1μΜ: in %
# Experimental: as §1, §2
SMILES,cell viability (kinase inhibitor library screening) (501Mel cells (parental); 1μΜ) [%],cell viability (kinase inhibitor library screening) (501Mel cells (parental); 10μΜ) [%],cell viability (kinase inhibitor library screening) ([1]; 1μΜ) [%],cell viability (kinase inhibitor library screening) ([1]; 10μΜ) [%],cell viability (kinase inhibitor library screening) ([2]; 1μΜ) [%],cell viability (kinase inhibitor library screening) ([2]; 10μΜ) [%],cell viability (kinase inhibitor library screening) (A375 cells (parental); 10μΜ) [%],cell viability (kinase inhibitor library screening) (A375 cells (parental); 1μΜ) [%],cell viability (kinase inhibitor library screening) ([3]; 1μΜ) [%],cell viability (kinase inhibitor library screening) ([3]; 10μΜ) [%],cell viability (kinase inhibitor library screening) ([4]; 10μΜ) [%],cell viability (kinase inhibitor library screening) (IGR37 cells (parental); 1μΜ) [%],cell viability (kinase inhibitor library screening) ([5]; 10μΜ) [%],cell viability (kinase inhibitor library screening) ([6]; 1μΜ) [%],cell viability (kinase inhibitor library screening) ([6]; 10μΜ) [%],"cell viability, 501Mel Parental, 1μΜ (501Mel cells (parental); 1μΜ)","cell viability, 501Mel Parental, 10μΜ (501Mel cells (parental); 10μΜ)","cell viability, 501Mel GP, 1μΜ ([1]; 1μΜ)","cell viability, 501Mel GP, 10μΜ ([1]; 10μΜ)","cell viability, 501Mel XP, 1μΜ ([2]; 1μΜ)",other results
CC(=O)c1c(C)c2cnc(Nc3ccc(N4CCNCC4)cn3)nc2n(C2CCCC2)c1=O.Cl [PD 0332991 (Palbociclib) HCl],89.7,80.1,83.8,66.3,76.9,25.1,59.1,78.9,77.9,57.2,63.1,96.5,78.0,98.1,28.9,–,–,–,–,–,cell viability (kinase inhibitor library screening) ([4]; 1μΜ): 74.5%
Cc1cc(CN2CCN(c3c(Br)cnc4nc(-c5ccc(N6CCN(C)CC6)cc5)[nH]c34)CC2)no1 [CCT137690],87.2,0.283,95.4,-0.454,76.9,-0.565,1.0,56.7,56.6,0.6,0.9,91.0,1.7,93.1,0.741,–,–,–,–,–,cell viability (kinase inhibitor library screening) (IGR37 cells (parental); 10μΜ): 0.571%; cell viability (kinase inhibitor library screening) ([5]; 1μΜ): 88.6%
CC(O)C(=O)O.CC(O)C(=O)O.CN1CCN(c2ccc3nc(-c4c(N)c5c(F)cccc5[nH]c4=O)[nH]c3c2)CC1,–,–,–,–,–,–,–,–,–,–,–,–,–,–,–,106.3,0.756,100.0,0.0395,91.1,"cell viability, 501Mel XP, 10μΜ ([2]; 10μΜ): -0.0481; cell viability, A375 Parental, 1μΜ (A375 cells (parental); 1μΜ): 106.9; cell viability, A375 Parental, 10μΜ (A375 cells (parental); 10μΜ): 48.0; cell viability, A375 GP, 1μΜ ([3]; 1μΜ): 91.8; cell viability, A375 GP, 10μΜ ([3]; 10μΜ): 46.4; cell viability, A375 XP, 10μΜ ([4]; 10μΜ, in %): 59.2; cell viability, IGR37 Parental, 1μΜ (IGR37 cells (parental); 1μΜ, in %): 105.9; cell viability, IGR37 Parental, 10μΜ (IGR37 cells (parental); 10μΜ, in %): 76.1; cell viability, IGR37 GP, 10μΜ ([5]; 10μΜ): 46.5%; cell viability, IGR37 GP, 1μΜ ([5]; 1μΜ): 106.1; cell viability, IGR37 XP, 10μΜ ([6]; 10μΜ): 33%; cell viability, IGR37 XP, 1μΜ ([6]; 1μΜ): 106.9"
CCO.N#CC(=C(/N)Sc1ccccc1N)/C(C#N)=C(\N)Sc1ccccc1N [U0126-EtOH],–,–,–,–,–,–,–,–,–,–,–,–,–,–,–,94.5,65.9,105.2,75.1,86.9,"cell viability, 501Mel XP, 10μΜ ([2]; 10μΜ): 62.2; cell viability, A375 Parental, 1μΜ (A375 cells (parental); 1μΜ): 100.1; cell viability, A375 Parental, 10μΜ (A375 cells (parental); 10μΜ): 39.4; cell viability, A375 GP, 1μΜ ([3]; 1μΜ): 93.9; cell viability, A375 GP, 10μΜ ([3]; 10μΜ): 64.5; cell viability, A375 XP, 1μΜ ([4]; 1μΜ, in %): 94.5; cell viability, A375 XP, 10μΜ ([4]; 10μΜ, in %): 60.2; cell viability, IGR37 Parental, 10μΜ (IGR37 cells (parental); 10μΜ, in %): 35.1; cell viability, IGR37 GP, 10μΜ ([5]; 10μΜ): 83.5%; cell viability, IGR37 GP, 1μΜ ([5]; 1μΜ): 93.8; cell viability, IGR37 XP, 10μΜ ([6]; 10μΜ): 45.1%; cell viability, IGR37 XP, 1μΜ ([6]; 1μΜ): 92.3"
